Target: T1, MMP-2 (Homo sapiens, UniProt P08253)
T1 construct: purchased Calbiochem-Novabiochem International, Inc
T1 sequence (P08253 110-660): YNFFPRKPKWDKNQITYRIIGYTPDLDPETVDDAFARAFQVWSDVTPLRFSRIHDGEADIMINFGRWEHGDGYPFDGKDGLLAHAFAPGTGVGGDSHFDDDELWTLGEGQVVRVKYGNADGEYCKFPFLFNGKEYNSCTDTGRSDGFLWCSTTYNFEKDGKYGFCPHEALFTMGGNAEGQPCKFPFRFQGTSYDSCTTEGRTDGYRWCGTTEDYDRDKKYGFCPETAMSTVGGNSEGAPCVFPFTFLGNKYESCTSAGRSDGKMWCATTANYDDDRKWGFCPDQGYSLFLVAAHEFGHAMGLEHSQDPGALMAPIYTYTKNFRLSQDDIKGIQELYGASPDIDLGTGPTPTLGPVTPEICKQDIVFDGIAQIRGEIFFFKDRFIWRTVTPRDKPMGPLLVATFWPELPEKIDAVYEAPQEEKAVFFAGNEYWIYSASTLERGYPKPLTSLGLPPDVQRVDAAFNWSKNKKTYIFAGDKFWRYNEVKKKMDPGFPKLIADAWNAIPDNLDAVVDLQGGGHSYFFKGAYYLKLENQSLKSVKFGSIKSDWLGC
Assay: Assay for inhibitory activities on MMP-2 (fluorogenic coumarin-labelled peptide substrate)
Type: biochemical
Settings: MMP-2 purchased from Calbiochem-Novabiochem; substrate MOCAc-Pro-Leu-Gly-Leu-A2Pr(DNP)-Ala-Arg-NH2
Protocol: MMP-2 was purchased from Calbiochem-Novabiochem International, Inc.
The enzymatic activity on MMP-2 was analyzed by the method described in “C. Graham Knight, Frances Willenbrock and Gillian Murphy: A novel coumarin-labelled peptide for sensitive continuous assays of the matrix metalloproteinases: FEBS LETT., 296, (1992), 263-266”. The substrate: MOCAc-Pro-Leu-Gly-Leu-A2Pr(DNP)-Ala-Arg-NH2 was purchased from Peptide Institute, Inc., Osaka, Japan.
The measurement of the inhibitory activities (IC50) was carried out by the following four methods;
A) Reaction with substrate, enzyme (MMPs) and inhibitor
B) Reaction with substrate and inhibitor, without enzyme
C) Reaction with substrate and enzyme (MMPs), without inhibitor
D) Reaction with substrate only
IC50 values were calculated by using the following formula and each fluorescence values of above four methods (A to D).
IC50 means the concentration required to inhibit 50% of the enzyme activity.

Structure (SMILES)	IC50 [nM]
CC(C)[C@@H](NS(=O)(=O)c1ccc(-c2noc(-c3ccc(Cl)cc3)n2)cc1)C(=O)O [Compound A-2]	5.75
CCc1ccc(-c2nc(-c3ccc(S(=O)(=O)N[C@@H](C(=O)O)C(C)C)cc3)no2)cc1 [Compound A-3]	1.24
CCCCc1ccc(-c2nc(-c3ccc(S(=O)(=O)N[C@@H](C(=O)O)C(C)C)cc3)no2)cc1 [Compound A-4]	1.23
Cc1ccc(-c2nc(-c3ccc(S(=O)(=O)N[C@H](Cc4ccccc4)C(=O)O)cc3)no2)cc1 [Compound A-5]	6.68
O=C(O)[C@@H](Cc1ccccc1)NS(=O)(=O)c1ccc(-c2noc(-c3ccc(Cl)cc3)n2)cc1 [Compound A-6]	13.9
O=C(O)[C@@H](Cc1ccccc1)NS(=O)(=O)c1ccc(-c2noc(-c3ccc(F)cc3)n2)cc1 [Compound A-7]	26.5
CN(C)c1ccc(-c2nc(-c3ccc(S(=O)(=O)N[C@H](Cc4ccccc4)C(=O)O)cc3)no2)cc1 [Compound A-8]	11.9
CCCCc1ccc(-c2nc(-c3ccc(S(=O)(=O)N[C@H](Cc4ccccc4)C(=O)O)cc3)no2)cc1 [Compound A-9]	6.04
Cc1ccc(-c2nc(-c3ccc(S(=O)(=O)N[C@H](C)C(=O)O)cc3)no2)cc1 [Compound A-10]	9.17
C[C@@H](NS(=O)(=O)c1ccc(-c2noc(-c3ccc(Cl)cc3)n2)cc1)C(=O)O [Compound A-11]	18.6
Cc1ccc(-c2nc(-c3ccc(S(=O)(=O)NCC(=O)O)cc3)no2)cc1 [Compound A-12]	51.6
O=C(O)CNS(=O)(=O)c1ccc(-c2noc(-c3ccc(Cl)cc3)n2)cc1 [Compound A-13]	85.2
CC(C)[C@@H](NS(=O)(=O)c1ccc(-c2noc(-c3ccccc3)n2)cc1)C(=O)O [Compound A-16]	26.4
CC(C)[C@@H](NS(=O)(=O)c1ccc(-c2noc(-c3ccc(F)cc3)n2)cc1)C(=O)O [Compound A-17]	15.5
Cc1ccc(-c2nc(-c3ccc(S(=O)(=O)NC(C(=O)O)C(C)C)cc3)no2)cc1 (centres unmarked) [Compound A-19]	114
CCCc1ccc(-c2nc(-c3ccc(S(=O)(=O)NC(C(=O)O)C(C)C)cc3)no2)cc1 (centres unmarked) [Compound A-20]	0.883
CCCc1ccc(-c2nc(-c3ccc(S(=O)(=O)N[C@H](C(=O)O)C(C)C)cc3)no2)cc1 [Compound A-21]	126
CC(C)[C@@H](NS(=O)(=O)c1ccc(-c2noc(-c3cccs3)n2)cc1)C(=O)O [Compound A-22]	40.7
CC(C)[C@H](NS(=O)(=O)c1ccc(-c2noc(-c3cccs3)n2)cc1)C(=O)O [Compound A-23]	339
Cc1ccc(-c2nc(-c3ccc(S(=O)(=O)N[C@@H](C(=O)O)C(C)C)cc3)no2)s1 [Compound A-24]	2.88
Cc1ccc(-c2nc(-c3ccc(S(=O)(=O)N[C@H](C(=O)O)C(C)C)cc3)no2)s1 [Compound A-25]	47.4

Structure (SMILES)	IC50 [nM]
CC(C)[C@@H](NS(=O)(=O)c1ccc(-c2noc(-c3ccc(Cl)s3)n2)cc1)C(=O)O [Compound A-26]	6.72
CC(C)[C@H](NS(=O)(=O)c1ccc(-c2noc(-c3ccc(Cl)s3)n2)cc1)C(=O)O [Compound A-27]	60.3
O=C(O)[C@@H](Cc1ccccc1)NS(=O)(=O)c1ccc(-c2noc(-c3ccccc3)n2)cc1 [Compound A-29]	27.9
Cc1ccc(-c2nc(-c3ccc(S(=O)(=O)N[C@@H](Cc4ccccc4)C(=O)O)cc3)no2)cc1 [Compound A-30]	39.8
CCc1ccc(-c2nc(-c3ccc(S(=O)(=O)N[C@H](Cc4ccccc4)C(=O)O)cc3)no2)cc1 [Compound A-31]	4.98
N#Cc1ccc(-c2nc(-c3ccc(S(=O)(=O)N[C@H](Cc4ccccc4)C(=O)O)cc3)no2)cc1 [Compound A-34]	13.1
O=C(O)[C@@H](Cc1ccccc1)NS(=O)(=O)c1ccc(-c2noc(-c3ccc(C4CCCCC4)cc3)n2)cc1 [Compound A-35]	14.4
Cc1cccc(-c2nc(-c3ccc(S(=O)(=O)N[C@H](Cc4ccccc4)C(=O)O)cc3)no2)c1 [Compound A-36]	38
O=C(O)[C@H](Cc1ccccc1)NS(=O)(=O)c1ccc(-c2noc(-c3ccc4c(c3)OCO4)n2)cc1 [Compound A-37]	20.2
COc1ccc(-c2nc(-c3ccc(S(=O)(=O)N[C@@H](Cc4ccccc4)C(=O)O)cc3)no2)cc1OC [Compound A-38]	506
O=C(O)[C@H](Cc1ccccc1)NS(=O)(=O)c1ccc(-c2noc(-c3ccc(Cl)c(Cl)c3)n2)cc1 [Compound A-39]	80.7
O=C(O)[C@@H](Cc1ccccc1)NS(=O)(=O)c1ccc(-c2noc(-c3cccs3)n2)cc1 [Compound A-40]	31
Cc1ccc(-c2nc(-c3ccc(S(=O)(=O)N[C@H](Cc4ccccc4)C(=O)O)cc3)no2)s1 [Compound A-41]	5.59
O=C(O)[C@@H](Cc1ccccc1)NS(=O)(=O)c1ccc(-c2noc(-c3ccco3)n2)cc1 [Compound A-42]	47
O=C(O)[C@@H](Cc1ccccc1)NS(=O)(=O)c1ccc(-c2noc(-c3cccnc3)n2)cc1 [Compound A-43]	171
C[C@@H](NS(=O)(=O)c1ccc(-c2noc(-c3ccccc3)n2)cc1)C(=O)O [Compound A-44]	45
C[C@@H](NS(=O)(=O)c1ccc(-c2noc(-c3ccc(F)cc3)n2)cc1)C(=O)O [Compound A-45]	31
Cc1ccc(-c2nc(-c3ccc(S(=O)(=O)N[C@@H](C)C(=O)O)cc3)no2)cc1 [Compound A-46]	458
CCc1ccc(-c2nc(-c3ccc(S(=O)(=O)N[C@H](C)C(=O)O)cc3)no2)cc1 [Compound A-47]	4.63
CCCc1ccc(-c2nc(-c3ccc(S(=O)(=O)N[C@H](C)C(=O)O)cc3)no2)cc1 [Compound A-48]	1.17
CCCc1ccc(-c2nc(-c3ccc(S(=O)(=O)N[C@@H](C)C(=O)O)cc3)no2)cc1 [Compound A-49]	126

Structure (SMILES)	IC50 [nM]
C[C@@H](NS(=O)(=O)c1ccc(-c2noc(-c3ccc([N+](=O)[O-])cc3)n2)cc1)C(=O)O [Compound A-50]	12.6
CC(=O)c1ccc(-c2nc(-c3ccc(S(=O)(=O)N[C@H](C)C(=O)O)cc3)no2)cc1 [Compound A-51]	3.21
C[C@@H](NS(=O)(=O)c1ccc(-c2noc(-c3cccs3)n2)cc1)C(=O)O [Compound A-52]	36.8
Cc1ccc(-c2nc(-c3ccc(S(=O)(=O)N[C@H](C)C(=O)O)cc3)no2)s1 [Compound A-53]	8.74
C[C@@H](NS(=O)(=O)c1ccc(-c2noc(-c3ccc(Cl)s3)n2)cc1)C(=O)O [Compound A-54]	12.4
C[C@@H](NS(=O)(=O)c1ccc(-c2noc(-c3ccsc3)n2)cc1)C(=O)O [Compound A-55]	50.3
C[C@@H](NS(=O)(=O)c1ccc(-c2noc(-c3ccco3)n2)cc1)C(=O)O [Compound A-56]	70.5
CCc1ccc(-c2nc(-c3ccc(S(=O)(=O)NCC(=O)O)cc3)no2)cc1 [Compound A-59]	20
CC(C)c1ccc(-c2nc(-c3ccc(S(=O)(=O)NCC(=O)O)cc3)no2)cc1 [Compound A-60]	14.3
CCCc1ccc(-c2nc(-c3ccc(S(=O)(=O)NCC(=O)O)cc3)no2)cc1 [Compound A-61]	15.7
O=C(O)CNS(=O)(=O)c1ccc(-c2noc(-c3cccs3)n2)cc1 [Compound A-62]	196
Cc1ccc(-c2nc(-c3ccc(S(=O)(=O)NCC(=O)O)cc3)no2)s1 [Compound A-63]	33.9
CCc1ccc(-c2nc(-c3ccc(S(=O)(=O)N[C@H](Cc4c[nH]c5ccccc45)C(=O)O)cc3)no2)cc1 [Compound A-64]	1.39
CCCc1ccc(-c2nc(-c3ccc(S(=O)(=O)N[C@H](Cc4c[nH]c5ccccc45)C(=O)O)cc3)no2)cc1 [Compound A-65]	1.66
CC(C)C[C@@H](NS(=O)(=O)c1ccc(-c2noc(-c3ccc(Cl)cc3)n2)cc1)C(=O)O [Compound A-66]	37.6
Cc1ccc(-c2nc(-c3ccc(S(=O)(=O)N[C@@H](CC(C)C)C(=O)O)cc3)no2)cc1 [Compound A-67]	124
CC(C)[C@@H](NS(=O)(=O)c1ccc(-c2noc(-c3ccc(F)cc3)n2)s1)C(=O)O [Compound B-1]	67.7
CCc1ccc(-c2nc(-c3ccc(S(=O)(=O)N[C@@H](C(=O)O)C(C)C)s3)no2)cc1 [Compound B-2]	5.39
O=C(O)[C@@H](Cc1ccccc1)NS(=O)(=O)c1ccc(-c2noc(-c3ccc(F)cc3)n2)s1 [Compound B-3]	223
CCc1ccc(-c2nc(-c3ccc(S(=O)(=O)N[C@H](Cc4ccccc4)C(=O)O)s3)no2)cc1 [Compound B-4]	17.8
